Source: patent publication US11891386B2, “Indole compounds and their use” (ARIAGEN, INC., priority 2017, dated 2024)

Experiments:
[1] = Hepatocyte intrinsic clearance assay, human hepatocytes; type: in vitro ADME; settings: male, cryopreserved pooled human hepatocytes; Human Hepatocytes, 1 μM test compound
Text: (§1) The liver is an important organ in the body for drug metabolism. This Example describes hepatocyte intrinsic clearance assays using both human and mouse hepatocytes to evaluate the metabolic stability of the indole compounds disclosed herein. The parameters measured include t1/2 (half-life), CLint (intrinsic clearance), and EH (hepatic extraction ratio).
(§2) Testosterone (Lot FE111011-01) was obtained from Cerilliant (Round Rock, TX). 7-hydroxycoumarin (Lot 11631ED) was obtained from Sigma Aldrich (St. Louis, MO). Cryopreserved human hepatocytes pooled from ten donor males (X008001), cryopreserved male IRC/CD-1 mouse hepatocytes (M005052), INVITROGRO HI Medium (incubation), and INVITROGRO HT Medium (thawing) were obtained from Bioreclamation IVT (Baltimore, MD). All solvents were obtained from commercial sources and used without further purification.
(§3) Each test compound was prepared as a 1 mM stock solution in DMSO. A 2 μM solution of test compound and positive controls were prepared in INVITROGRO HI Medium (incubation). These solutions were pre-warmed in a sterile incubator set to maintain 37° C., 5% CO2, and 98% humidity. Cryopreserved hepatocytes were prepared at a concentration of 2×10^6 living cells/mL in incubation media and pre-warmed in the incubator. The compound solutions and hepatocyte mixtures were then combined at a ratio of 1:1 (v:v). The final volume of the reaction mixture was 750 μL, containing 1 μM test compound (10 μM for 7-hydroxycoumarin) and […]. The reaction mixture was placed in the incubator on a plate shaker. After 0, 15, 30, 60, 90, and 120 minutes of incubation, 100 μL of reaction mixtures were removed from the incubation plate and mixed with 150 μL of ice-cold acetonitrile in a designated well of a 96-well crash plate. The 96-well crash plate was placed on ice for 15 min, and samples were centrifuged (3,600 RPM, 10 min, 4° C.) to precipitate protein. The supernatants were diluted 1:1 (v:v) with water containing 0.15 μM verapamil and/or 1 μM tolbutamide (internal standards for positive and negative modes, respectively) in a 96-well shallow injection plate. This plate was sealed for LC-MS analysis. All measurements were done in duplicate.
(§4) The residual compound remaining (% R) was determined from LC-MS peak areas by comparison to the zero time point. Metabolic half-life (t1/2) and intrinsic clearance (CLint) values were calculated from the slope of the plot of ln (% R) vs. time and the concentration of hepatocytes present in the incubation. Percent remaining at 60 minutes was calculated by plugging in the 60 minute value into the slope equation generated by the percent remaining time points.
(§5) In vivo hepatic clearance CLH was calculated using the well stirred liver model according to the following equation:
(§6) [formula] where QH is the total liver blood flow, fu is unbound fraction of the drug, and CL′int is defined as follows: CL′int=CLint×(10^6 cells/g of liver weight)×(g liver weight/kg of body weight). In the first approximation, used in this study, fu=1.
(§7) Hepatic extraction ratio EH was calculated using the following equation:
(§8) [formula] Corresponding physiological parameters used in calculations for all species are shown below in Table 5.

[2] = test system: human hepatocytes; test: as above; type: in vitro ADME; settings: for CLint (μL/min/10^6 ells) / EH (%) hepatic extraction ratio: Human Hepatocytes; for CLint (μL/min/10^6 ells): 1 μM test compound; for EH (%) hepatic extraction ratio: well stirred liver model, fu=1; for clearance / metabolic profile, in words / EH lower as compared to ARI-002, in words / times lower clearance as compared to ARI-002: human hepatocytes
Text: as §1, §2, §3, §4, §5, §6, §7, §8

Structure (SMILES)	half-life at 1 μM [1]	CLint (μL/min/10^6 ells) [2]	EH (%) hepatic extraction ratio [2]	clearance / metabolic profile, in words [2]	EH lower as compared to ARI-002, in words [2]	times lower clearance as compared to ARI-002 [2]
COC(=O)c1csc(C(=O)c2c[nH]c3ccccc23)n1 [ARI-001, ITE]	0.13 h	220.4 μL/min/10^6 ells	91%	–	–	–
CNC(=O)c1csc(C(=O)c2c[nH]c3ccccc23)n1 [ARI-004]	0.712 h	40.2 μL/min/10^6 ells	65%	–	–	–
Cc1nc(-c2csc(C(=O)c3c[nH]c4ccccc34)n2)no1 [ARI-030, (1H-indol-3-yl)(4-(5-methyl-1,2,4-oxadiazol-3-yl)thiazol-2-yl)methanone]	6.31 h	1.8 μL/min/10^6 ells	18%	–	–	–
Cc1noc(-c2csc(C(=O)c3c[nH]c4ccccc34)n2)n1 [ARI-031, (1H-indol-3-yl)(4-(3-methyl-1,2,4-oxadiazol-5-yl)thiazol-2-yl)methanone]	16.1 h	0.7 μL/min/10^6 ells	8%	low clearance	–	–
CNC(=O)c1csc(C(=O)c2c[nH]c3ccc(Cl)cc23)n1 [ARI-049, 2-(5-chloro-1H-indole-3-carbonyl)-N-methylthiazole-4-carboxamide]	3.88 h	3.0 μL/min/10^6 ells	27%	lower clearance and EH value	–	–
COC(=O)c1csc(C(=O)c2c[nH]c3ccc(Cl)cc23)n1 [ARI-055, methyl 2-(5-chloro-1H-indole-3-carbonyl)thiazole-4-carboxylate]	1.12 h	10.3 μL/min/10^6 ells	56%	–	–	–
O=C(c1nc(-c2nnco2)cs1)c1c[nH]c2ccccc12 [ARI-056, (4-(1,3,4-oxadiazol-2-yl)thiazol-2-yl)(1H-indol-3-yl)methanone]	0.653 h	17.7 μL/min/10^6 ells	68%	–	–	–
Cc1nnc(-c2csc(C(=O)c3c[nH]c4ccccc34)n2)o1 [ARI-060, (1H-indol-3-yl)(4-(5-methyl-1,3,4-oxadiazol-2-yl)thiazol-2-yl)methanone]	4.55 h	2.5 μL/min/10^6 ells	24%	–	–	–
CNC(=O)c1csc(C(=O)c2c[nH]c3ccc(F)cc23)n1 [ARI-065, 2-(5-fluoro-1H-indole-3-carbonyl)-N-methylthiazole-4-carboxamide]	1.52 h	7.6 μL/min/10^6 ells	48%	lower clearance and EH value	–	–
COC(=O)c1csc(C(=O)c2c[nH]c3ccc(F)cc23)n1 [ARI-066, methyl 2-(5-fluoro-1H-indole-3-carbonyl)thiazole-4-carboxylate]	0.117 h	98.7 μL/min/10^6 ells	92%	–	–	–
CCC(=O)c1csc(C(=O)c2c[nH]c3ccc(Cl)cc23)n1 [ARI-067, 1-(2-(5-chloro-1H-indole-3-carbonyl)thiazol-4-yl)propan-1-one]	5 h	2.3 μL/min/10^6 ells	22%	–	–	–
Nc1nnc(-c2csc(C(=O)c3c[nH]c4ccccc34)n2)o1 [ARI-083, (4-(5-amino-1,3,4-oxadiazol-2-yl)thiazol-2-yl)(1H-indol-3-yl)methanone]	10.8 h	1.1 μL/min/10^6 ells	12%	lower clearance and hepatic extraction parameters than ARI-060	–	–
CCC(=O)c1csc(C(=O)c2c[nH]c3ccc(F)cc23)n1 [ARI-087, 1-(2-(5-fluoro-1H-indole-3-carbonyl)thiazol-4-yl)propan-1-one]	1.91 h	6.0 μL/min/10^6 ells	43%	–	two times lower	23 times
Nc1nnc(-c2csc(C(=O)c3c[nH]c4ccccc34)n2)s1 [ARI-090, (4-(5-amino-1,3,4-thiadiazol-2-yl)thiazol-2-yl)(1H-indol-3-yl)methanone]	2.19 h	5.3 μL/min/10^6 ells	39%	–	–	–
Nc1nnc(-c2csc(C(=O)c3c[nH]c4c(F)cccc34)n2)o1 [ARI-118, (4-(5-amino-1,3,4-oxadiazol-2-yl)thiazol-2-yl)(7-fluoro-1H-indol-3-yl)methanone]	15.4 h	0.7 μL/min/10^6 ells	8.4%	low clearance	–	–
Nc1nnc(-c2csc(C(=O)c3c[nH]c4cc(Cl)c(Cl)cc34)n2)o1 [ARI-120, (4-(5-amino-1,3,4-oxadiazol-2-yl)thiazol-2-yl)(5,6-dichloro-1H-indol-3-yl)methanone]	15.3 h	0.8 μL/min/10^6 ells	8.5%	low clearance	–	–
CCC(=O)c1csc(C(=O)c2c[nH]c3c(F)cccc23)n1 [ARI-140, 1-(2-(7-fluoro-1H-indole-3-carbonyl)thiazol-4-yl)propan-1-one]	3.33 h	3.5 μL/min/10^6 ells	30%	–	–	–
CCC(=O)c1csc(C(=O)c2c[nH]c3cccc(F)c23)n1 [ARI-142, 1-(2-(4-fluoro-1H-indole-3-carbonyl)thiazol-4-yl)propan-1-one]	1.43 h	8.1 μL/min/10^6 ells	50%	–	–	–
CCC(=O)c1csc(C(=O)c2c[nH]c3cc(F)ccc23)n1 [ARI-143, 1-(2-(6-fluoro-1H-indole-3-carbonyl)thiazol-4-yl)propan-1-one]	2.57 h	4.5 μL/min/10^6 ells	36%	–	two times	30 times
NCc1nnc(-c2csc(C(=O)c3c[nH]c4c(F)cccc34)n2)o1 [ARI-145, (4-(5-(aminomethyl)-1,3,4-oxadiazol-2-yl)thiazol-2-yl)(7-fluoro-1H-indol-3-yl)methanone]	2.83 h	4.1 μL/min/10^6 ells	33%	–	–	–
NCc1nc(-c2csc(C(=O)c3c[nH]c4c(F)cccc34)n2)no1 [ARI-146, (4-(5-(aminomethyl)-1,2,4-oxadiazol-3-yl)thiazol-2-yl)(7-fluoro-1H-indol-3-yl)methanone]	6.23 h	1.9 μL/min/10^6 ells	19%	–	–	–
Nc1nnc(-c2csc(C(=O)c3c[nH]c4ccc(F)cc34)n2)o1 [ARI-148, (4-(5-amino-1,3,4-oxadiazol-2-yl)thiazol-2-yl)(5-fluoro-1H-indol-3-yl)methanone]	4.7 h	2.5 μL/min/10^6 ells	23%	–	–	–
CCC(=O)c1csc(C(=O)c2c[nH]c3cc(F)c(F)cc23)n1 [ARI-149, 1-(2-(5,6-difluoro-1H-indole-3-carbonyl)thiazol-4-yl)propan-1-one]	2.2 h	5.3 μL/min/10^6 ells	39%	–	–	–
